This note sets out measurements from publication PMC4915154, “Development of background-free tame fluorescent probes for intracellular live cell imaging” (Nature Communications, 2016).

The test system of series [1] is U-2 OS and CHO cell lines. The series can be described thus: Cellular retention and efflux characteristics test (before/after washing imaging, retaining ratio RR). The series is classed as cell-based, human (U-2 OS), Chinese hamster (CHO). The following applies: 30 min; for Experimentally observed group: U-2 OS and CHO cell lines, probe 1 μM, imaged before and 10 min after washing; for Cellular retention after washing (probe signal): CHO and U-2 OS cells, 1 uM probe. The text has this: To expedite an efficient strategy for ‘tame' probe development, we set up a system to predict cellular properties of fluorescent probes via phenotypic high-throughput screening (HTS), cheminformatics and statistical analysis (Fig. 1a). As the first step, we conducted phenotypic HTS to investigate cell permeability and nonspecific binding properties of the probes in a training set. We tested about 2,085 probes consisted of a wide range photophysical properties from numerous fluorophore cores such as BODIPY[12][13][14][15], xanthone, rosamine, cyanine[19][20] and ACEMAN[21]. Their cellular influx and efflux profiles were examined in two types of mammalian cells, U-2 OS and CHO. These cell lines were chosen due to their flexibility in genetic manipulation, adaptability to various culture conditions and versatility in wide biomedical research such as gene expression, toxicity screening, recombinant protein and live cell imaging. Each of the probes was added into live cells and cell image was taken after 30 min by ImageXpress Micro cellular imaging system (Molecular Device). The cells were then washed with fresh growth media, and after another 10 min, a second image was taken to check the completeness of probe washing out of the cell. The first and second imaging facilitated influx (before washing, BW) and efflux (after washing, AW) measurements, respectively (Supplementary Fig. 1).
To measure the influx and efflux of the probes, an automated quantitative intensity-based image analysis was then performed by Multi-Wavelength Cell Scoring analysis using MetaXpress High Content Image software. Retaining ratio (RR, per cent ratio of the average intensity of AW image over BW image) was computed to classify probes into the three phenotypic groups. For each cell in the image, the nuclei and cell region were segmented to provide approximate cellular boundaries. Fluorescence intensity was then quantified on a cell-by-cell basis by the following steps: (i) selecting the image of interest, (2) specifying the width of the stained cell area, (3) adjusting the intensity above local background for detection specificity, and (4) calculating fluorescence intensity with specified reporting parameters. Average fluorescence intensity for each BW and AW images was calculated for each probes and cell lines, and was then used as input in RR calculation (Supplementary Figs 2 and 3).
U-2 OS, a human osteosarcoma cell line, and CHO, a Chinese hamster ovary cell line, (from ATCC) were cultured in Dulbecco's modified eagle's medium (DMEM) (Invitrogen, CA, USA) supplemented with fetal bovine serum (FBS) (10%) and penicillin–streptomycin (1%). Materials used in the cell culture were purchased from Invitrogen. U-2 OS and CHO cells were seeded onto 96-well plate in growth media at 37 °C in the presence of 5% CO2 and were then allowed to attach and grow to 70–80% confluence. Library probes were dissolved in dimethylsulfoxide (DMSO) to make the 1 mM solution, and stored in −20 °C. Before HTS experiment, the growth media was aspirated and replaced by 200 μl fresh growth media containing probes in final concentration of 1 μM and nuclei dye Hoechst 33342. Plates were incubated for 30 min at 37 °C then were imaged using ImageXpress Micro cellular imaging system (Molecular Device) with × 10 objective lens. Immediately after image acquisition, the cells were washed with fresh growth media, and transferred back to a 37 °C cell incubator for further incubation. After 10 min, cells were again imaged (AW image). The first imaging step allowed influx measurement of BW image , while the second imaging step allowed out-flux measurement of AW image. Images of two regions per well were acquired with DAPI, FITC, TRITC or Texas Red filter sets according to probes' excitation and emission wavelength. Experiment was performed in duplicate. Cellular retention and efflux characteristics test for other synthesized probes were also done by using the same protocol. […]

The subject of series [2] is azide-tagged intracellular organelles in U-2 OS cells. Description: Live cell SPAAC labelling of azide-tagged organelles (mitochondria, lysosome, golgi apparatus). The series is classed as cell-based, human. The following applies: U-2 OS cells pre-treated with TPP-Az, Sphingo-Az or Morph-Az, 2 μM probe, 1 h, 37 °C. The text has this:
Next, we investigated intracellular imaging in live cells using CO-1. We synthesized various azide-bearing reporters: TPP-Az, a triphenylphosphonium analogue which accumulates in mitochondria; Sphingo-Az, a ceramide analogue to target golgi apparatus; and Morph-Az, an azide derivative with morpholine moiety as a directing group for lysosome (Fig. 3a). SPAAC covalent labelling reactions between CO-1 and all azide reporters in vitro were clean and rapid. We anticipated that the cell permeable CO-1 is capable of labelling any azide reporters effectively, regardless the reporters' cellular localization. We added 2 μM CO-1 to the growth media of U-2 OS cells pre-treated with TPP-Az, Sphingo-Az or Morph-Az separately. Confocal fluorescence images were then taken after probe washing.
Figure 3 Live cell imaging with CO-1. (a) Chemical structures and schematic illustration of the covalent labelling of azide-tagged organelles using CO-1 in live cells. (b) Fluorescence imaging of mitochondria, lysosome and golgi apparatus in U-2 OS cells labelled with CO-1. Cells pre-treated with TPP-Az, Morph-Az or Sphingo-Az were incubated with 2 μM CO-1 in growth media at 37 °C for 1 h and followed by counterstaining with organelle trackers. Scale bar, 15 μm. (c) Fluorescence imaging of histone H2B in live U-2 OS. U-2 OS cells were co-transfected with plasmids pIre-Azi3 and pmH2B-6-mKate2-16tag to incorporate UAA Azi into H2B-mKate2 at site 16. After Azi incorporation, cells were labelled with 10 μM CO-1 for 90 min at 37 °C. Cells were then washed and imaged. The mKate2 (red) signals were detected in cell nuclei only, and colocalized with the CO-1 (green) signals in the merged image. Scale bar, 5 μm.
U-2 OS cells were treated with 5 μM TPP-Az, in culture media for 2 h at 37 °C. After incubation, cells were washed and added with 2 μM CO-1 probe. Labelling was allowed to proceed for 1 h at 37 °C in the incubator chamber. […]
Fluorescence imaging of mitochondria, lysosome and golgi apparatus in U-2 OS cells labeled with CO-1H. […] In contrast to CO-1, high fluorescence background from CO-1H was observed. […]

A short description of series [3]: Spectroscopic properties (absorbance, emission, extinction coefficient, quantum yield). The settings on record: 10 μM in DMSO. The series is classed as physicochemical. The protocol: Supplementary Table 9. Spectrocopic properties and purity table for CO-1 and CO-1H.
Calculated mass, experimental mass, absorbance maximum (λabs), fluorescent emission maximum (λem), extinction coefficient (ε), quantum yield (Φ), and purity. mass m/z λabs λem ε Purity […]
Absorbance and fluorescence emission data were recorded by a Synergy 4, Biotek Inc. fluorescent plate reader at 10 μM concentration in DMSO in 96-well plates. HRMS a: found mass (M-H), b: tetramethyl BODIPY was used as standard, c: purity data was calculated on the basis of the integration in HPLC trace at 254 nm.

`Cc1cc(/C=C/c2ccc(B(O)O)cc2)n2c1C(c1ccc(N)cc1)=C1C=CC=[N+]1[B-]2(F)F` [BOR-1H]: in series [1], the Experimentally observed group entry was “H-group (those with RR >5% were classified into H-group)”.

As to `Cc1cc(/C=C/c2ccc(B(O)O)cc2)n2c1C(CCC(=O)N1CCOCC1)=C1C=CC(CCC(=O)N(C)C)=[N+]1[B-]2(F)F` [BOR-1], in series [1], the “Cellular retention after washing (probe signal)” value was “significantly decreased after washing”; the Experimentally observed group entry was “L-group (Probes (FI(BW) >200) with rapid efflux were observed to have a RR of <5%, and thus were classified into L-group)”. In the case of `COC(=O)c1ccc(C2=C3C(C)=CC(C)=[N+]3[B-](F)(F)n3c(/C=C/c4ccc(B(O)O)cc4)cc(C)c32)cc1` [BOR-2H], in series [1], the Experimentally observed group result was “H-group (those with RR >5% were classified into H-group)”.

On to `Cc1cc(C)n2c1C(CCC(=O)N1CCOCC1)=C1C=CC(CCC(=O)NCCC(=O)N3Cc4ccccc4C#Cc4ccccc43)=[N+]1[B-]2(F)F` [CO-1H], for which the “Fluorescence background after washing” value in series [2] was “high-fluorescence background”. Further, in series [1], the “Cellular retention after washing (probe signal)” value is given as “retained inside the cells” and the Experimentally observed group result is recorded as “H-group (those with RR >5% were classified into H-group)”. Further, in series [3], the ε worked out at 83333 M⁻¹ cm⁻¹, the λabs is recorded as 500 nm and the λem turned out to be 520 nm. For the same compound, the “QY (Φ)” value in series [3] (tetramethyl BODIPY as standard) stood at 0.83. For the compound `NCCNC1=C2C=CC=[N+]2[B-](F)(F)n2cccc21` [CS-2], the Experimentally observed group result in series [1] was “L-group (Probes (FI(BW) >200) with rapid efflux were observed to have a RR of <5%, and thus were classified into L-group)”.

`CCc1c(C)c2n(c1C)[B-](F)(F)[N+]1=CC=CC1=C2SC` [CS-3]: the Experimentally observed group result in series [1] was “L-group (Probes (FI(BW) >200) with rapid efflux were observed to have a RR of <5%, and thus were classified into L-group)”. As to `CCc1c(C)c2n(c1C)[B-](F)(F)[N+]1=CC=CC1=C2` [CS-8], the Experimentally observed group result in series [1] is “L-group (Probes (FI(BW) >200) with rapid efflux were observed to have a RR of <5%, and thus were classified into L-group)”. As to `COC1=C2C=CC(C)=[N+]2[B-](F)(F)n2c(C)ccc21` [CS-11], the Experimentally observed group entry in series [1] is “L-group (Probes (FI(BW) >200) with rapid efflux were observed to have a RR of <5%, and thus were classified into L-group)”. Regarding `F[B-]1(F)n2cccc2C(N2CCOCCOCCOCC2)=C2C=CC=[N+]21` [CS-13], in series [1], the Experimentally observed group entry is “L-group (Probes (FI(BW) >200) with rapid efflux were observed to have a RR of <5%, and thus were classified into L-group)”. Turning to `F[B-]1(F)n2cccc2C(N2CCOCCOCCOCCOCC2)=C2C=CC=[N+]21` [CS-14], in series [1], the Experimentally observed group entry is “N-group (Probes in which BW images having FI(BW) ≤200 were classified as N-group)”. Still for that read-out and setting: next, `CC1=[N+]2C(=C(N3CCNCC3)c3ccc(C)n3[B-]2(F)F)C=C1` [CS-42]: “L-group (Probes (FI(BW) >200) with rapid efflux were observed to have a RR of <5%, and thus were classified into L-group)”; `CCOC(=O)CCNC1=C2C=CC(CC)=[N+]2[B-](F)(F)n2c(CC)ccc21` [CS-56]: “L-group (Probes (FI(BW) >200) with rapid efflux were observed to have a RR of <5%, and thus were classified into L-group)”; `CC(C)(C)NC1=C2C=CC=[N+]2[B-](F)(F)n2cccc21` [CS-101]: “L-group (Probes (FI(BW) >200) with rapid efflux were observed to have a RR of <5%, and thus were classified into L-group)”.
